The text below walks through data of ChEMBL document CHEMBL1145288, “5-substituted, 6-substituted, and unsubstituted 3-heteroaromatic pyridine analogues of nicotine as selective inhibitors of cytochrome P-450 2A6” (J Med Chem, 2005).

The target in one data set is Cytochrome P450 2C19 (Homo sapiens, UniProt P33261). The data set is described as follows: Inhibitory concentration value against human cytochrome P-450 2C19.
Data set [1] addresses T1, Cytochrome P450 2A6 (Homo sapiens, UniProt P11509).
T1 sequence (P11509 whole entry): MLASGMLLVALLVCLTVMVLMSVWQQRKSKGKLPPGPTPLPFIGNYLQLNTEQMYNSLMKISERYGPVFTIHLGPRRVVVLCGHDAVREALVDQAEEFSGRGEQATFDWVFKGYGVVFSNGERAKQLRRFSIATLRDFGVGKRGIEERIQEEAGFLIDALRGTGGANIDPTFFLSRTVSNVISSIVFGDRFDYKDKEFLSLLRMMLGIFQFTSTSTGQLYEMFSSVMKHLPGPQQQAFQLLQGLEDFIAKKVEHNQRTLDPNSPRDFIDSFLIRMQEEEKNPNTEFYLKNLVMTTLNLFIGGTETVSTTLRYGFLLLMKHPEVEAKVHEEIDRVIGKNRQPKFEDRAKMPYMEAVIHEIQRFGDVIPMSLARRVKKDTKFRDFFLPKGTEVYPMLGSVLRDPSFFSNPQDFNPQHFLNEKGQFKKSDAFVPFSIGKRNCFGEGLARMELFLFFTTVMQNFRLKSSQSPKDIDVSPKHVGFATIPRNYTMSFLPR
The experiment in a line: Inhibitory concentration value against human cytochrome P-450 2A6.

The next data set concerns the target T2, Cytochrome P450 2B6 (Homo sapiens, UniProt P20813).
T2 sequence (P20813 whole entry): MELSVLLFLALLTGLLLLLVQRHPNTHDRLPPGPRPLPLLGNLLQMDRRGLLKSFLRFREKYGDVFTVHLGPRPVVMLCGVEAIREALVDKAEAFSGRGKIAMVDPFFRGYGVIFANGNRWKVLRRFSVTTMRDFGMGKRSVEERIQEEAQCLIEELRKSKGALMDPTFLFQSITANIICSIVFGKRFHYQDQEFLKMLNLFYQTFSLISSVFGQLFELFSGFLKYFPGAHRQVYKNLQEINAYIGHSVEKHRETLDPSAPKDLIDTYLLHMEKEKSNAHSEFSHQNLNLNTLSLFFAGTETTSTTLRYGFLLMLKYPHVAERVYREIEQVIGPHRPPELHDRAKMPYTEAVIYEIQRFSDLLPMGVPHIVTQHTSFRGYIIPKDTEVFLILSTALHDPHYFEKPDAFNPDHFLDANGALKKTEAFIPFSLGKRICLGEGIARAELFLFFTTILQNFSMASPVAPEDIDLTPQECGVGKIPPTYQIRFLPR
The experiment in a line: Inhibitory concentration value against human cytochrome P-450 2B6.

A further data set addresses Cytochrome P450 2C9 (Homo sapiens, UniProt P11712). The experiment in a line: Inhibitory concentration against human cytochrome P-450 2C9.
A further data set has as its target Cytochrome P450 2D6 (Homo sapiens, UniProt P10635). The experiment in a line: Inhibitory concentration value against human cytochrome P-450 2D6.
For another data set, the target named is Cytochrome P450 2E1 (Homo sapiens, UniProt P05181). The data set is described as follows: Inhibitory concentration value against human cytochrome P-450 2E1.
Sequence of Cytochrome P450 2E1 (P05181 whole entry): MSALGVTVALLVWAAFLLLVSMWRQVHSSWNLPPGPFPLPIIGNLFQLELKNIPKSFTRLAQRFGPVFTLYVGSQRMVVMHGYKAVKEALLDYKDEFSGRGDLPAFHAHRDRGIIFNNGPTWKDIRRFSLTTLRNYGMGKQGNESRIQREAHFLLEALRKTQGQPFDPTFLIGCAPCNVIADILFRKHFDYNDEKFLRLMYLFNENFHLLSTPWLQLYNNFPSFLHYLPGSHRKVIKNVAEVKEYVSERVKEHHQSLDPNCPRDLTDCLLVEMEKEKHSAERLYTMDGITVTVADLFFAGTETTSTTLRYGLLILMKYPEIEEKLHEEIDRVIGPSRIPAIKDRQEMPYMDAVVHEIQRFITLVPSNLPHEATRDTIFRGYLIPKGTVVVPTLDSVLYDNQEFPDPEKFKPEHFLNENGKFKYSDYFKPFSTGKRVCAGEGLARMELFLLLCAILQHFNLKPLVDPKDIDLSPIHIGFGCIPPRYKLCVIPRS
Another data set deals with Cytochrome P450 3A4 (Homo sapiens, UniProt P08684). The experiment in a line: Inhibitory concentration value against human cytochrome P-450 3A4.
Sequence of Cytochrome P450 3A4 (P08684 whole entry): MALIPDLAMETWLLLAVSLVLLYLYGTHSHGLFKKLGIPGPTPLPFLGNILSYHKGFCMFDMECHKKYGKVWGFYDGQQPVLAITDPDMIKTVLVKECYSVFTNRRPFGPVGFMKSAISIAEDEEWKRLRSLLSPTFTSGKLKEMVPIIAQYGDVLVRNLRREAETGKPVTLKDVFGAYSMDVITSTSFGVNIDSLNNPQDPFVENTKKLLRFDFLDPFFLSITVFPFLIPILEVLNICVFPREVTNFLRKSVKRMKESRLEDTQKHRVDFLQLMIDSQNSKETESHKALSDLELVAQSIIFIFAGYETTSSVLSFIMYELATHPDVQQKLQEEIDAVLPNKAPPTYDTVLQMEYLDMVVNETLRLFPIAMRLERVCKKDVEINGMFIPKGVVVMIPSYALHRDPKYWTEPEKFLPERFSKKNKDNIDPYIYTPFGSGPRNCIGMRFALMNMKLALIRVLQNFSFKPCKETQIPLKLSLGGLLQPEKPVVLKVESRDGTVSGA
Another data set relates to CYP2B6 versus CYP2A6. The experiment in a line: Ratio of inhibition of human cytochrome P-450 2B6 to 2A6 was determined; Expressed as IC50(CYP2B6)/IC50(CYP2A6).
In another data set the test system is CYP2C9 versus CYP2A6. The experiment in a line: Ratio of inhibition of human cytochrome P-450 2C9 to 2A6 was determined; Expressed as IC50(CYP2C9)/IC50(CYP2A6).
A further data set has as its system CYP2D6 versus CYP2A6. The data set is described as follows: Ratio of inhibition of human cytochrome P-450 2D6 to 2A6 was determined; Expressed as IC50(CYP2D6)/IC50(CYP2A6).
The test system of a further data set is CYP2E1 versus CYP2A6. The data set is described as follows: Ratio of inhibition of human cytochrome P-450 2E1 to 2A6 was determined; Expressed as IC50(CYP2E1)/IC50(CYP2A6).
Another data set deals with CYP3A4 versus CYP2A6. The data set is described as follows: Ratio of inhibition of human cytochrome P-450 3A4 to 2A6 was determined; Expressed as IC50(CYP3A4)/IC50(CYP2A6).
For the next data set, the system named is CYP2C19 versus CYP2A6. The data set is described as follows: Ratio of inhibition of human cytochrome P-450 2C19 to 2A6 was determined; Expressed as IC50(CYP2C19)/IC50(CYP2A6).
For data set [2], the target named is T1, Cytochrome P450 2A6. The data set is described as follows: Effect on coumarin 7-hydroxylation by human Cytochrome P-450 2A6.

Sequence of Cytochrome P450 2C19 (P33261 whole entry): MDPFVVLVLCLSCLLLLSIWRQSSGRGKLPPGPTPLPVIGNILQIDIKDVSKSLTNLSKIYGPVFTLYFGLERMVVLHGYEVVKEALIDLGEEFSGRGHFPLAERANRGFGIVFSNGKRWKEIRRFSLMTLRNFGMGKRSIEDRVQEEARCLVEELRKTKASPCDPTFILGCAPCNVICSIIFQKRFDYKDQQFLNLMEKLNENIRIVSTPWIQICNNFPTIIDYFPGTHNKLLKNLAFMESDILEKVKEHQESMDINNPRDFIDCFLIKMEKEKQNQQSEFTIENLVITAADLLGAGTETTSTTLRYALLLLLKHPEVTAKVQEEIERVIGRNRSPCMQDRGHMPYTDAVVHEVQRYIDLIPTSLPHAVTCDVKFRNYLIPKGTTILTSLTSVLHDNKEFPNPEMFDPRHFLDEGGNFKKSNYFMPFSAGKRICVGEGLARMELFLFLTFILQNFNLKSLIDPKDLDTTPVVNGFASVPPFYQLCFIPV
Sequence of Cytochrome P450 2C9 (P11712 whole entry): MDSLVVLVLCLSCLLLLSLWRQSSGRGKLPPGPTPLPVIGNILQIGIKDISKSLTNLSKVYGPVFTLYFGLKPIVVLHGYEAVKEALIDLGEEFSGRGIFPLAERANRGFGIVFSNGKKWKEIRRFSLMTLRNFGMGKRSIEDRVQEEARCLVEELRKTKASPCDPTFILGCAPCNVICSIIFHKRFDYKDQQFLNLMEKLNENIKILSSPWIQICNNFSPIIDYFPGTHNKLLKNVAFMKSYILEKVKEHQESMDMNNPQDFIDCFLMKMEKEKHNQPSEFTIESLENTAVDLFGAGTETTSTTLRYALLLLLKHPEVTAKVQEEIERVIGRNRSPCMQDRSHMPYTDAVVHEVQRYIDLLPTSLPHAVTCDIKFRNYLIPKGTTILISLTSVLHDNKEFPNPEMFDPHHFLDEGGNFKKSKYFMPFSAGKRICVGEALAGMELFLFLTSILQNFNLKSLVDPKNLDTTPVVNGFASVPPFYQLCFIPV
Sequence of Cytochrome P450 2D6 (P10635 whole entry): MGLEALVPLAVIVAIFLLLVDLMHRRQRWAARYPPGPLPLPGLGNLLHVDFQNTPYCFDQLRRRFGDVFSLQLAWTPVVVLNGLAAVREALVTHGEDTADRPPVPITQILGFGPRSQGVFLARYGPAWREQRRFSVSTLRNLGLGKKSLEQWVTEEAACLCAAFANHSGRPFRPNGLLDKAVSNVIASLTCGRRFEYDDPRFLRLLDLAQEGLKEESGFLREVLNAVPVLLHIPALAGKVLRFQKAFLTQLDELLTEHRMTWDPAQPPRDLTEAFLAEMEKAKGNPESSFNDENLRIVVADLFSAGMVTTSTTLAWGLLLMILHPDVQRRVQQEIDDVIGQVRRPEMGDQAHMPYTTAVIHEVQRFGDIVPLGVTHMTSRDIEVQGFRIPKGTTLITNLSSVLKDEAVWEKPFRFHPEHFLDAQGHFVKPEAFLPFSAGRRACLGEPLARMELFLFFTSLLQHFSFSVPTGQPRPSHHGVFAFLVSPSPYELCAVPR

For orientation: IC50 means the concentration that gives 50% inhibition. The low end stands for greater potency, the high end for weaker potency. A word on the Ki: it is a dissociation constant, usually derived from enzyme kinetics or from competition with a known ligand. Low values mean higher affinity, high ones lower affinity. Take `C[n+]1c[nH]cc1-c1cccnc1`: the IC50 is 122 µM at Cytochrome P450 2C19; 0.75 µM against Cytochrome P450 2A6 [1]; 146 µM at Cytochrome P450 2B6; 79.5 µM at Cytochrome P450 2C9; 217 µM against Cytochrome P450 2D6; 4.1 µM on Cytochrome P450 2E1. At Cytochrome P450 3A4, this molecule came in with an IC50 of 262 µM. The selectivity ratio was determined as 195 with CYP2B6 versus CYP2A6; 106 with CYP2C9 versus CYP2A6; 289 with CYP2D6 versus CYP2A6; 5 in the data set on CYP2E1 versus CYP2A6; 349 with CYP3A4 versus CYP2A6; 163 with CYP2C19 versus CYP2A6. The Ki at Cytochrome P450 2A6 [2] came to 0.13 µM.
